Columns and labels:
[1] = tested on: control genes (p21cip1/waf1, dihydrofolate reductase, human thrombin receptor, thymidine kinase); details: cited from earlier work
[2] = tested on: UM9 MM tumors; assay: In vivo efficacy in humanized xenograft RAG2-/-γc-/- model; design: species or system mice
Description: In vivo efficacy of FL118: The in vivo efficacy of FL118 was studied in a xenograft RAG2^−/−γc^−/− marine model in which human MM cells are grown in a humanized BM like microenvironment generated by subcutaneous inoculation of MSC coated Hybrid scaffolds (4 scaffolds per mice) as described elsewhere (Groen R W, et al. Blood 2012,120:e9-e16). 24 hours before tumor inoculation (UM9; 5×10^5 cells/scaffold) mice were pre-conditioned with 18 mg/kg Busilvex. One week after inoculation, when there was visible tumor growth in all scaffolds by BLI, mice were randomly divided in four groups which were treated as follows: (1) vehicle control (n=3); (2) 0.05 mg/kg FL118 (n=4); (3) 0.1 mg/kg FL118 (n=4); (4) 0.2 mg/kg FL118 (n=4). FL118 or vehicle was administrated i.v. daily for five times. Tumor growth was monitored by weekly BLI measurements as previously described (Groen R W, et al. Blood 2012,120:e9-e16). All animal experiments were conducted for animal experimentation and were in compliance with the Dutch Animal Experimentation Act.

[3] = tested on: human tumors; details: cited from earlier work
[4] = tested on: Survivin; assay: Intracellular staining of Survivin in patient MM cells; assay type: cell-based, human; details: FL118-susceptible RR patients, 16 h
Description: Intracellular staining Survivin and Mcl-1: Mcl-1 and survivin expression levels in MM cells of BMMNC patient samples were determined by intracellular staining followed by flow cytometry. Untreated or FL118 treated (16 h) patient samples were washed twice with cold PBS. Cells were blocked with human immunoglobulin and stained for CD38 (BD biosciences), CD138 (Bio-Connect) and live/dead cell marker. In addition, LUC- and Green fluorescence protein (GFP)-transduced UM9 MM-cells were incubated alone or a monolayer of 1×10^6 BMMSCs in a 100 mm dish for 24 or 48 hours. Non-adherent cells were harvested by taking culture medium from plates and washing plates with PBS by gentle pipetting. Adherent cells were harvested using Stem-Pro Accutase. Both adherent and non-adherent cells were blocked with human immunoglobulin and stained for CD105 (Synobiotechnology) and live/dead marker. The stained patient cells and UM9 cells were then fixated in 4% formaldehyde for 15 minutes at room temperature. After fixation, the cells were placed in ice cold 90% methanol for 30 minutes on ice for permeabilization and subsequently stored at −20° C. […] Expression levels were analyzed in viable CD38^+ CD138^+ patient MM cells and GFP^+ CD105^− UM9-cells using flow cytometry.

[5] = target: topoisomerase I (Top1) (Homo sapiens, UniProt P11387); details: cited from earlier work
[6] = tested on: PDX tumors; details: in vivo; cited from earlier work
[7] = X-ray powder diffractometer (XRPD) crystal versus amorphous status; assay type: physicochemical
Description: Crystal versus amorphous status analyses of FL118 versus the formulated FL118 product using X-ray powder diffractometer: The crystal or amorphous status of each formulated FL118-a type of CD complex powder is determined using X-ray powder diffractometer (XRPD). Specifically, about 5 mg samples of each formulated FL118-a type of CD complex powder are spread onto the center of Si-substrate (samples area will be 1 cm in diameter) for XRPD testing. Laboratory XRPD patterns for samples will be collected at 25° C. The diffraction data will be collected over the angular range of 2θ=3°-40° with a step size of 2θ=0.02° and accounting time of 0.12 s/step.

[8] = tested on: T-cells and NK-cells; assay: Toxicity of FL118 on immune effector cells; assay type: cell-based, human; details: up to 100 nM
Description: Toxicity of FL118 on immune effector cells: Cryopreserved BMMNCs derived from MM patients or plasma cell leukemia (PCL) patients, were treated with various concentrations of FL118. After 24 hours, viable CD45^+ CD3^+ T-cells and CD45^+ CD56^+ CD14^− CD3^− NK-cells were enumerated by multiparameter flow cytometry. Additionally, healthy-donor peripheral blood mononuclear cells (PBMCs) were seeded in 96-well flat-bottom plates at 1×10^5 cells/well, stimulated with PMA (25 ng/mL) and ionomycin (500 ng/mL) (both Santa Cruz Biotechnology) for 24 hours, and subsequently treated with FL118 for 48 hours before determining activated CD45^+ CD3^+ CD56^− CD25^+ T-cells by flow cytometry. The percentage cell survival was then calculated using the following formula: % immune cell survival=absolute number of viable immune cells in treated wells/mean absolute number of viable immune cells in untreated wells×100%.

[9] = tested on: BMMSCs; assay: BMMSC viability (Cell TiterGlo)
Description: A pool (n=12) of newly diagnosed-MM patient derived BMMSCs were treated with serial concentrations of FL118. Cell viability was determined by Cell TiterGlo after indicated period of time. Error bars represent the SD of three independent experiments.
Bone Marrow derived Mesenchymal stromal cells (BMMSCs): Diagnostic BM aspirations from MM patients were used to isolate BMMNCs and culture adherent BMMSCs as described elsewhere (Prins H J, et al. Tissue Eng Part A. 2009, 15:3741-3751). To minimalize inter-individual variation, all experiments were performed with cells from a pool of BMMSCs derived from twelve MM patients at passage 3.

[10] = tested on: MM1.s cells
[11] = tested on: MM cell lines; assay: BLI-based cytotoxicity assay using LUC-transduced MM cell lines; design: species or system human
Description: Cell lines and culture: Luciferase (LUC)-transduced MM cell lines RPMI 8226, JJN3, UM9, MM1.s, U266, L363, and OPM-2 were cultured in RPMI 1640 (Life Technologies), supplemented with 10% heat-inactivated HyClone FetalClone I serum (GE Healthcare Life Sciences) and (penicillin, 10.000 U/mL; streptomycin, […]; InVitrogen,). HS-5 was cultured in DMEM (Life Technologies), supplemented with heat-inactivated FBS (Sigma) and antibiotics.

[12] = 0.2 mg/kg i.v. daily for five times

topoisomerase I (Top1), sequence (P11387 whole entry, species assumed): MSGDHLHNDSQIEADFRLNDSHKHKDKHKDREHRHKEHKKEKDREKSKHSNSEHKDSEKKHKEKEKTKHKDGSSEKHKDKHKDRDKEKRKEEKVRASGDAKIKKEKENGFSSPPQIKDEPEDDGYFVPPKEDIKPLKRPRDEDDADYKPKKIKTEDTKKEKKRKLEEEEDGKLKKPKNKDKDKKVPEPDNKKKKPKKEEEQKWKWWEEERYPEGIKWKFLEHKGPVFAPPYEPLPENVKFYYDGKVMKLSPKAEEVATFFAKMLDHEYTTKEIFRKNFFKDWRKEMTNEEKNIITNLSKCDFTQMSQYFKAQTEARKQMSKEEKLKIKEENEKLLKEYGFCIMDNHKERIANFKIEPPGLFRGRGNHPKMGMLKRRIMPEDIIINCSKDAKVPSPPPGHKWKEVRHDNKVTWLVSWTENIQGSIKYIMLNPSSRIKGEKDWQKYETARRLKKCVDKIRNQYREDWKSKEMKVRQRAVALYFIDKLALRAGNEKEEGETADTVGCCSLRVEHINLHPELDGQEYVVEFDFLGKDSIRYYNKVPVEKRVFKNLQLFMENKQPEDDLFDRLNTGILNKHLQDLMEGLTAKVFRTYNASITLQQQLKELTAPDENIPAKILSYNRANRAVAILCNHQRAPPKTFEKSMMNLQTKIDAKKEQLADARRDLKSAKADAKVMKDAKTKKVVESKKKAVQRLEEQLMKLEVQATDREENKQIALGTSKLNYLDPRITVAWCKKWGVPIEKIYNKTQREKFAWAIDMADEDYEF

Question: Which “inhibitory effects on control genes” value [1] does the source give for `CC[C@@]1(O)C(=O)OCc2c1cc1n(c2=O)Cc2cc3cc4c(cc3nc2-1)OCO4` [FL118] here?
Answer: no inhibitory effects

Question: What about the “delay of tumor outgrowth” value [2, 12] of the same molecule?
Answer: up to 5 weeks

Question: And the “effect on initial tumor volume” value [2, 12]?
Answer: reduce the initial tumor volume

Question: What about the “in vivo anti-MM activity” value ([2]; 0.05, 0.1, 0.2 mg/kg i.v. daily for five times) of the same molecule?
Answer: dose-dependent

Question: And the “activity on irinotecan and topotecan-resistant human tumors” value ([3]; animal models)?
Answer: effectively overcomes

Question: And the tumor elimination ([3]; two-month experimental period)?
Answer: eliminate small and large volume human tumors without relapse in a high percentage of mice

Question: What about the “antitumor activity compared with FDA-approved anticancer drugs” value ([3]; versus irinotecan, topotecan, doxorubicin, 5-FU, gemcitabine, docetaxel, oxaliplatin, cytoxan, cisplatin) of the same molecule?
Answer: significantly better antitumor activity

Question: And the “levels of Survivin expression” value [4]?
Answer: significantly reduced

Question: And the “concentration level for effects on Top1 activity” value [5]?
Answer: μM levels

Question: What about the “effect on PDX tumors resistant/non-sensitive to FL118 and gemcitabine, combination with gemcitabine” value [6] of the same molecule?
Answer: eliminated the PDX tumors

Question: What about the “effect on PDX tumors, FL118 alone” value [6] of the same molecule?
Answer: effectively eliminated PDX tumors

Question: What about the “crystal versus amorphous status” value [7] of the same molecule?
Answer: crystal

Question: What about the “toxic effects on resting T-cells or NK-cells” value ([8]; BMMNC samples from MM or PCL patients, 24 hours) of the same molecule?
Answer: no toxic effects

Question: What about the “toxic effects on PMA-activated CD25+ T-cells” value ([8]; healthy individuals, 48 hours) of the same molecule?
Answer: no toxic effects

Question: What about the “toxicity against BMMSCs” value ([9]; serial concentrations of FL118) of the same molecule?
Answer: minimal toxicity

Question: And the “toxic effects on BMMSCs” value ([9]; up to a dose of 100 nM)?
Answer: no toxic effects

Question: And the “combination with anti-DR5 antibody Drozitumab, cell lysis” value ([10]; 24 hours, PBMC effectors)?
Answer: great synergistic activity

Question: What about the “microenvironment-induced immune resistance, combination with Drozitumab” value ([10]; presence of BMMSCs) of the same molecule?
Answer: reversed

Question: What about the “lysis of MM cell lines in the presence of BMMSCs” value ([11]; 5 of 6 MM cell lines) of the same molecule?
Answer: not reduced, or even increased

Question: What about the “stroma-cell induced drug resistance against bortezomib and doxorubicin” value ([11]; MM1.s and UM9 co-cultured with BMMSCs or HS-5, 48 hours) of the same molecule?
Answer: effectively abrogated

Question: And the “combination activity with melphalan or bortezomib” value ([11]; MM cell lines, 48 hours)?
Answer: at least additive activity

Question: And the “lysis of MM cell line in the presence of BMMSCs” value ([11]; cell line UM9)?
Answer: minimal reduction
